Measured values: PMC10001202, “Preparation, Identification and Preliminary Application of the Fenvalerate Monoclonal Antibody in Six Kinds of Dark Tea” (Foods, 2023)
In brackets after ≈: the same amount, converted by molar mass.

Experiments:
Format in all cases: binding, BALB/c mice
McAb 2A11 = assay: ic-ELISA cross-reactivity, McAb 2A11
Method: (§1) The cross-reactivities with nine permethrin pesticides (deltamethrin, permethrin, cypermethrin, bifenthrin, fenpermethrin, fluobenzene, beta-cyhalothrin, dextrofenthrin, cypermethrin) were obtained, and McAb was determined to clarify the specificity of the monoclonal antibody prepared. The IC50 of the nine permethrin pesticides was measured by the ic-ELISA with the obtained McAb and the coating antigen. The cross-reactivity was calculated with the following Formula (1):Cross-reactivity (CR, %) = IC50 of Fen/IC50 of Fen analogs × 100%(1)

McAb 5G2 = assay: ic-ELISA cross-reactivity, McAb 5G2
Method: as §1

McAb 1B6 = assay: ic-ELISA cross-reactivity, McAb 1B6
Method: as §1

[1] = IC50 of Fen/IC50 of analog × 100%

Row | Compound | IC50 (McAb 2A11) | IC50 (McAb 5G2) | IC50 (McAb 1B6) | CR% (McAb 2A11; [1]) | CR% (McAb 5G2; [1]) | CR% (McAb 1B6; [1])
1 | CC1(C)C(C=C(Cl)Cl)C1C(=O)OC(C#N)c1cccc(Oc2ccccc2)c1 (stereo not drawn) [Cypermethrin] | >10,000 ng/mL | >10,000 ng/mL | >10,000 ng/mL |  |  | 
2 | CC(C)=CC1C(C(=O)OCc2cccc(Oc3ccccc3)c2)C1(C)C [D-Phenothrin] | >10,000 ng/mL | >10,000 ng/mL | >10,000 ng/mL |  |  | 
3 | Cc1c(COC(=O)[C@@H]2[C@H](/C=C(\Cl)C(F)(F)F)C2(C)C)cccc1-c1ccccc1 (racemic) [Bifenthrin] | >10,000 ng/mL | >10,000 ng/mL | >10,000 ng/mL |  |  | 
4 | CC1(C)[C@H](C(=O)O[C@H](C#N)c2cccc(Oc3ccccc3)c2)[C@@H]1/C=C(\Cl)C(F)(F)F (racemic) [Lambda-cyhalothrin] | >10,000 ng/mL | >10,000 ng/mL | >10,000 ng/mL |  |  | 
5 | CC1(C)C(C=C(Cl)c2ccc(Cl)cc2)C1C(=O)OC(C#N)c1ccc(F)c(Oc2ccccc2)c1 (stereo not drawn) [Flumethrin] | >10,000 ng/mL | >10,000 ng/mL | >10,000 ng/mL |  |  | 
6 | CC1(C)[C@H](C(=O)O[C@H](C#N)c2cccc(Oc3ccccc3)c2)[C@@H]1C=C(Br)Br [Deltamethrin] | >10,000 ng/mL | >10,000 ng/mL | >10,000 ng/mL |  |  | 
7 | CC1(C)C(C=C(Cl)Cl)C1C(=O)OC(C#N)c1ccc(F)c(Oc2ccccc2)c1 (stereo not drawn) [Cyfluthrin] | >10,000 ng/mL | >10,000 ng/mL | >10,000 ng/mL |  |  | 
8 | CC1(C)C(C=C(Cl)Cl)C1C(=O)OCc1cccc(Oc2ccccc2)c1 (stereo not drawn) [Permethrin] | >10,000 ng/mL | >10,000 ng/mL | >10,000 ng/mL |  |  | 
9 | CC1(C)C(C(=O)OC(C#N)c2cccc(Oc3ccccc3)c2)C1(C)C (stereo not drawn) [Fenpropathrin] | >10,000 ng/mL | >10,000 ng/mL | >10,000 ng/mL |  |  | 
10 | CC(C)C(C(=O)OC(C#N)c1cccc(Oc2ccccc2)c1)c1ccc(Cl)cc1 (stereo not drawn) [Fenvalerate] | 24.29 ng/mL (≈ 0.0578 µM) | 21.65 ng/mL (≈ 0.0516 µM) | 36.6 ng/mL (≈ 0.0872 µM) | 100% | 100% | 100%
